Assay results: patent publication US20060069132A1, “Azolecarboxamide herbicides” (priority 2004, published 2006)

Columns and labels:
barnyardgrass = assay: Test C flooded paddy test; assay type: in vivo, Echinochloa crus-galli; conditions: for Plant response rating, Barnyardgrass: 500 g ai/ha, visual rating after 12 to 14 days
In short: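 After a postemergence application at 1 to 4 leaves (plants 2–18 cm high), or at 2 leaves for barnyardgrass in flooded paddy, plants stayed in the greenhouse for 12 to 14 days. Damage was then judged visually relative to control plants, with 100 indicating complete control.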

[1] = test system: smallflower umbrella sedge; assay: Test C flooded paddy test; assay type: in vivo, Cyperus difformis; conditions: for Plant response rating, Sedge, Umbrella: 500 g ai/ha, visual rating after 12 to 14 days
kochia = assay: Test C pre-/postemergence herbicide test; assay type: in vivo, Kochia scoparia; conditions: for Plant response rating (0 = no effect, 100 = complete control), Kochia: 62 g ai/ha; for Plant response rating (0 = no effect, 100 = complete control), Kochia / Plant response rating, Kochia: preemergence; for Plant response rating, Kochia: 125 g ai/ha, scale 0 (no effect) to 100 (complete control), visual, 12 to 14 days; for Kochia plant response rating: Preemergence, 500 g ai/ha, scale 0 to 100, 0 no effect, 100 complete control
In short: (§1)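 Greenhouse-grown plants were evaluated visually 12 to 14 days after treatment, with 100 meaning complete control and 0 no effect. Application was preemergence, or postemergence at 2 to 18 cm.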

yellow nutsedge = assay: Test C pre-/postemergence herbicide test; assay type: in vivo, Cyperus esculentus; conditions: for Plant response rating (0 = no effect, 100 = complete control), Nutsedge, Yellow: 62 g ai/ha; for Plant response rating (0 = no effect, 100 = complete control), Nutsedge, Yellow / Plant response rating, Nutsedge, Yellow: preemergence; for Plant response rating, Nutsedge, Yellow: 125 g ai/ha, scale 0 (no effect) to 100 (complete control), visual, 12 to 14 days; for Nutsedge, Yellow plant response rating: Preemergence, 500 g ai/ha, scale 0 to 100, 0 no effect, 100 complete control
In short: as §1

corn = assay: Test C pre-/postemergence herbicide test; assay type: in vivo, Zea mays; conditions: for Plant response rating (0 = no effect, 100 = complete control), Corn: 62 g ai/ha; for Plant response rating (0 = no effect, 100 = complete control), Corn / Plant response rating, Corn: preemergence; for Plant response rating, Corn: visual, 12 to 14 days; for Corn plant response rating: Preemergence, 500 g ai/ha, scale 0 to 100, 0 no effect, 100 complete control
In short: as §1

Surinam grass = assay: Test C pre-/postemergence herbicide test; assay type: in vivo, Urochloa decumbens; conditions: for Plant response rating (0 = no effect, 100 = complete control), Surinam Grass: 62 g ai/ha; for Plant response rating (0 = no effect, 100 = complete control), Surinam Grass / Plant response rating, Surinam Grass: preemergence; for Plant response rating, Surinam Grass: 125 g ai/ha, scale 0 (no effect) to 100 (complete control), visual, 12 to 14 days; for Surinam Grass plant response rating: Preemergence, 500 g ai/ha, scale 0 to 100, 0 no effect, 100 complete control
In short: as §1

giant foxtail = assay: Test A pre-/postemergence herbicide test; assay type: in vivo, Setaria faberi
In short: (§2)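 Plants are held in greenhouse about ten days after treatment, then compared with untreated controls and scored 0 (no effect) to 100 (complete control). Preemergence dosing is a directed soil spray on sown sandy loam; postemergence dosing is spray to runoff at 2–10 cm height.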

velvetleaf = assay: Test A pre-/postemergence herbicide test; assay type: in vivo, Abutilon theophrasti
In short: as §2

pigweed = assay: Test C pre-/postemergence herbicide test; assay type: in vivo, Amaranthus retroflexus; conditions: for Plant response rating (0 = no effect, 100 = complete control), Pigweed: 62 g ai/ha; for Plant response rating (0 = no effect, 100 = complete control), Pigweed / Plant response rating, Pigweed: preemergence; for Plant response rating, Pigweed: 125 g ai/ha, scale 0 (no effect) to 100 (complete control), visual, 12 to 14 days; for Pigweed plant response rating: Preemergence, 500 g ai/ha, scale 0 to 100, 0 no effect, 100 complete control
In short: as §1

woolly cupgrass = assay: Test C pre-/postemergence herbicide test; assay type: in vivo, Eriochloa villosa; conditions: for Plant response rating (0 = no effect, 100 = complete control), Cupgrass, Woolly: 62 g ai/ha; for Plant response rating (0 = no effect, 100 = complete control), Cupgrass, Woolly / Plant response rating, Cupgrass, Woolly: preemergence; for Plant response rating, Cupgrass, Woolly: visual, 12 to 14 days; for Cupgrass, Woolly plant response rating: Preemergence, 500 g ai/ha, scale 0 to 100, 0 no effect, 100 complete control
In short: as §1

lambsquarters = assay: Test C pre-/postemergence herbicide test; assay type: in vivo, Chenopodium album; conditions: for Plant response rating (0 = no effect, 100 = complete control), Lambsquarters: 62 g ai/ha; for Plant response rating (0 = no effect, 100 = complete control), Lambsquarters / Plant response rating, Lambsquarters: preemergence; for Plant response rating, Lambsquarters: 125 g ai/ha, scale 0 (no effect) to 100 (complete control), visual, 12 to 14 days; for Lambsquarters plant response rating: Preemergence, 500 g ai/ha, scale 0 to 100, 0 no effect, 100 complete control
In short: as §1

soybean = assay: Test C pre-/postemergence herbicide test; assay type: in vivo, Glycine max; conditions: for Plant response rating (0 = no effect, 100 = complete control), Soybean: 62 g ai/ha; for Plant response rating (0 = no effect, 100 = complete control), Soybean / Plant response rating, Soybean: preemergence; for Plant response rating, Soybean: 125 g ai/ha, scale 0 (no effect) to 100 (complete control), visual, 12 to 14 days; for Soybean plant response rating: Preemergence, 500 g ai/ha, scale 0 to 100, 0 no effect, 100 complete control
In short: as §1

goosegrass = assay: Test C pre-/postemergence herbicide test; assay type: in vivo, Eleusine indica; conditions: for Plant response rating (0 = no effect, 100 = complete control), Goosegrass: 62 g ai/ha; for Plant response rating (0 = no effect, 100 = complete control), Goosegrass / Plant response rating, Goosegrass: preemergence; for Plant response rating, Goosegrass: 125 g ai/ha, scale 0 (no effect) to 100 (complete control), visual, 12 to 14 days; for Goosegrass plant response rating: Preemergence, 500 g ai/ha, scale 0 to 100, 0 no effect, 100 complete control
In short: as §1

morningglory = assay: Test C pre-/postemergence herbicide test; assay type: in vivo, Ipomoea coccinea; parameters: key to Plant response rating, Morningglory: 0 = no effect, 100 = complete control; conditions: for Plant response rating (0 = no effect, 100 = complete control), Morningglory: 62 g ai/ha; for Plant response rating (0 = no effect, 100 = complete control), Morningglory / Plant response rating, Morningglory: preemergence; for Plant response rating, Morningglory: 125 g ai/ha, scale 0 (no effect) to 100 (complete control), visual, 12 to 14 days; for Morningglory plant response rating: Preemergence, 500 g ai/ha, scale 0 to 100, 0 no effect, 100 complete control
In short: as §1

[2] = 62 g ai/ha, scale 0 to 100 (0 no effect, 100 complete control)
[3] = 125 g ai/ha, scale of 0 to 100, 0 is no effect, 100 is complete control
[4] = 250 g ai/ha, scale of 0 to 100, 0 is no effect, 100 is complete control
[5] = scale 0 to 100 (0 no effect, 100 complete control)
[6] = 125 g ai/ha, scale 0 (no effect) to 100 (complete control)
[7] = 250 g ai/ha, scale 0 to 100 (0 no effect, 100 complete control)
[8] = Postemergence, 500 g ai/ha, 0 to 100 scale, 0 no effect, 100 complete control
[9] = Postemergence, 2000 g ai/ha, 0 to 100 scale, 0 no effect, 100 complete control
[10] = Preemergence, 500 g ai/ha, visual rating, 0 to 100 scale (0 no effect, 100 complete control)
[11] = Preemergence, 2000 g ai/ha, 0 to 100 scale, 0 no effect, 100 complete control
[12] = Preemergence, 2000 g ai/ha, visual rating, 0 to 100 scale (0 no effect, 100 complete control)

## CCCN1CCc2c(NC(=O)c3cc(C(C)(C)C)nn3CC)cccc2C1=O [Compound 65]
barnyardgrass; [2]
  Barnyardgrass plant response rating: 0
barnyardgrass; [3]
  Barnyardgrass plant response rating: 0
barnyardgrass; [4]
  Barnyardgrass plant response rating: 30
barnyardgrass; [5]
  Plant response rating, Barnyardgrass: 60
[1]; [2]
  Sedge, Umbrella plant response rating: 0
[1]; [3]
  Sedge, Umbrella plant response rating: 20
[1]; [4]
  Sedge, Umbrella plant response rating: 75
[1]; [5]
  Plant response rating, Sedge, Umbrella: 80
kochia
  Plant response rating (0 = no effect, 100 = complete control), Kochia: 10
  Plant response rating, Kochia: 70
  Kochia plant response rating: 90
Yellow nutsedge
  Plant response rating (0 = no effect, 100 = complete control), Nutsedge, Yellow: 0
  Plant response rating, Nutsedge, Yellow: 0
  Nutsedge, Yellow plant response rating: 0
corn
  Plant response rating (0 = no effect, 100 = complete control), Corn: 0
  Corn plant response rating: 20
corn; [6]
  Plant response rating, Corn: 0
corn; [7]
  Plant response rating, Corn: 10
Surinam grass
  Plant response rating (0 = no effect, 100 = complete control), Surinam Grass: 0
  Plant response rating, Surinam Grass: 0
  Surinam Grass plant response rating: 50
Giant foxtail; [8]
  Plant response rating, Foxtail, Giant: 30
Giant foxtail; [9]
  Plant response rating, Foxtail, Giant: 55
Giant foxtail; [10]
  Foxtail, Giant plant response rating: 40
Giant foxtail; [11]
  Foxtail, Giant plant response rating: 80
velvetleaf; [9]
  Plant response rating, Velvetleaf: 25
velvetleaf; [10]
  Velvetleaf plant response rating: 10
velvetleaf; [12]
  Velvetleaf plant response rating: 30
pigweed
  Plant response rating (0 = no effect, 100 = complete control), Pigweed: 70
  Plant response rating, Pigweed: 100
  Pigweed plant response rating: 100
Woolly cupgrass
  Plant response rating (0 = no effect, 100 = complete control), Cupgrass, Woolly: 0
  Cupgrass, Woolly plant response rating: 10
Woolly cupgrass; [6]
  Plant response rating, Cupgrass, Woolly: 0
Woolly cupgrass; [7]
  Plant response rating, Cupgrass, Woolly: 10
lambsquarters
  Plant response rating (0 = no effect, 100 = complete control), Lambsquarters: 20
  Plant response rating, Lambsquarters: 95
  Lambsquarters plant response rating: 100
soybean
  Plant response rating (0 = no effect, 100 = complete control), Soybean: 0
  Plant response rating, Soybean: 0
  Soybean plant response rating: 20
goosegrass
  Plant response rating (0 = no effect, 100 = complete control), Goosegrass: 0
  Plant response rating, Goosegrass: 30
  Goosegrass plant response rating: 80
morningglory
  Plant response rating (0 = no effect, 100 = complete control), Morningglory: 0
  Plant response rating, Morningglory: 0
  Morningglory plant response rating: 10

## CCOC(=O)c1cccc(NC(=O)c2cc(C(C)(C)C)nn2CC)c1C [Compound 88]
barnyardgrass; [2]
  Barnyardgrass plant response rating: 0
barnyardgrass; [3]
  Barnyardgrass plant response rating: 0
barnyardgrass; [4]
  Barnyardgrass plant response rating: 15
barnyardgrass; [5]
  Plant response rating, Barnyardgrass: 45
[1]; [2]
  Sedge, Umbrella plant response rating: 0
[1]; [3]
  Sedge, Umbrella plant response rating: 50
[1]; [4]
  Sedge, Umbrella plant response rating: 80
[1]; [5]
  Plant response rating, Sedge, Umbrella: 80
kochia
  Plant response rating (0 = no effect, 100 = complete control), Kochia: 0
  Plant response rating, Kochia: 85
  Kochia plant response rating: 100
Yellow nutsedge
  Plant response rating (0 = no effect, 100 = complete control), Nutsedge, Yellow: 0
  Plant response rating, Nutsedge, Yellow: 0
  Nutsedge, Yellow plant response rating: 0
corn
  Plant response rating (0 = no effect, 100 = complete control), Corn: 0
  Corn plant response rating: 60
corn; [6]
  Plant response rating, Corn: 5
corn; [7]
  Plant response rating, Corn: 5
Surinam grass
  Plant response rating (0 = no effect, 100 = complete control), Surinam Grass: 10
  Plant response rating, Surinam Grass: 20
  Surinam Grass plant response rating: 95
Giant foxtail; [8]
  Foxtail, Giant plant response rating: 20
Giant foxtail; [9]
  Plant response rating, Foxtail, Giant: 60
Giant foxtail; [10]
  Foxtail, Giant plant response rating: 55
Giant foxtail; [11]
  Foxtail, Giant plant response rating: 90
velvetleaf; [8]
  Velvetleaf plant response rating: 40
velvetleaf; [9]
  Plant response rating, Velvetleaf: 55
velvetleaf; [10]
  Velvetleaf plant response rating: 45
velvetleaf; [12]
  Velvetleaf plant response rating: 70
pigweed
  Plant response rating (0 = no effect, 100 = complete control), Pigweed: 100
  Plant response rating, Pigweed: 100
  Pigweed plant response rating: 100
Woolly cupgrass
  Plant response rating (0 = no effect, 100 = complete control), Cupgrass, Woolly: 20
  Cupgrass, Woolly plant response rating: 90
Woolly cupgrass; [6]
  Plant response rating, Cupgrass, Woolly: 30
Woolly cupgrass; [7]
  Plant response rating, Cupgrass, Woolly: 80
lambsquarters
  Plant response rating (0 = no effect, 100 = complete control), Lambsquarters: 95
  Plant response rating, Lambsquarters: 95
  Lambsquarters plant response rating: 100
soybean
  Plant response rating (0 = no effect, 100 = complete control), Soybean: 0
  Plant response rating, Soybean: 0
  Soybean plant response rating: 10
goosegrass
  Plant response rating (0 = no effect, 100 = complete control), Goosegrass: 60
  Plant response rating, Goosegrass: 90
  Goosegrass plant response rating: 100
morningglory
  Plant response rating (0 = no effect, 100 = complete control), Morningglory: 0
  Plant response rating, Morningglory: 0
  Morningglory plant response rating: 20
